Values belong to the compound of their own block, whether it stands above or below them.
What was measured:
mTOR signaling = experiment: Western blot of mTOR signaling (P-S6K phosphorylation) in 4T1 cells in tryptophan-deficient DMEM; type: cell-based, mouse; details: 3 h, vs free IND
4T1 cells [1] = experiment: ICD screening of chemo agents in 4T1 cells (CRT expression, HMGB1 release); type: cell-based, mouse; details: multi-parameter cellular screening
Excerpt: One possible approach is to use chemotherapy to induce immunogenic cell death or ICD.

[2] = system: KPC pancreatic cancer cells; experiment: Induction of ICD marker CRT (flow cytometry) and HMGB1 release (ELISA) in cultured KPC pancreatic cancer cells; type: cell-based, mouse; details: 24 h; for induction of the ICD marker CRT: DOX 20 μM, OX 500 μM, activated DOX (DACHPt) 500 μM, flow cytometry; for HMGB1 release: ELISA
Protocol: (§1) FIG. 6. Panel A) Flow cytometry experiment showing the induction of the ICD marker, CRT, in cultured KPC pancreatic cancer cells in the presence of PBS, DOX (20 μM), OX (500 μM), and activated DOX (a.k.a. DACHPt, 500 μM) for 24 h. HMBG1 release was measured using ELISA. Panel B) Animal experimentation using 2 rounds of vaccination one week apart, followed by injecting live KPC cells SC on the contralateral side. The details of the animal vaccination experiment are provided in the methods section. Tumors were collected on day 26 for size measurement and IHC analysis. Panel C) Tumor size measurement on the contralateral side. Panel D) Explanted tumor at the contralateral side. Panel E) Spaghetti curves to show KPC tumor growth in the contralateral flank. Panel F) Tumor collection was performed after euthanizing the animal to conduct IHC. IHC staining of CD8 and Foxp3 T cells was used to calculate CD8/FoxP3 T cells ratio in each group. *p<0.05; **p<0.01
ICD is a modified form of apoptosis that can be used to initiate an effective immune response against endogenous tumor antigens (Kroemer et al. (2013) Ann. Rev. Immunol., 31: 51-72).^1 Since this model was 1st proposed against the backdrop of a select number of cancer drugs (Id.), we focused on the use of OX, because it is FDA-approved for PDAC treatment. As a component of the FOLFIRINOX regimen (in combination with irinotecan, 5-FU and folinic acid). For comparison, we also included the anthracycline antibiotic, DOX, as a positive control and cisplatin (Cis) as a negative control for the screening of PDAC cell lines, using cell surface CRT expression (Obeid et al. (2017) Nat. Med., 13(1): 54-61; Casares et al. (2005) J. Exp. Med. 202(12): 1691-1701; Fucikova et al. (2011) Canc. Res. 71(14): 4821-4833; Tesniere et al. (2010) Oncogene, 29(4): 482-491; Galluzzi et al. (2012) Oncogene, 31(15): 1869-1883; Martins et al. (2011) Oncogene, 30(10): 1147-1158). CRT is an endoplasmic reticulum (ER) stress protein that translocates to the surface membrane of cancer cells undergoing ICD (Obeid et al. (2017) Nat. Med., 13(1): 54-61; Fucikova et al. (2011) Canc. Res. 71(14): 4821-4833). Screening for CRT expression was performed in murine KPC cells, derived from a spontaneous tumor that developed in a transgenic Kras^LSL-G12D/+/Trp53^LSL-R172H/+/Pdx-1-Cre (KPC) mouse (Hingorani et al. (2005) Cancer cell, 7(5): 469-483).
The KPC model recapitulates many of disease features of human PDAC, including oncogene expression, development of a robust cancer stroma, extensive local invasion and distant metastases (Tones et al. (2013) PloS one, 8(11): e80580; Tseng et al. (2010) Clin. Canc. Res. 16(14): 3684-3695). DOX and OX and activated DOX induced the ICD marker CRT in cultured KPC pancreatic cancer cells (FIG. 6, panel A). […]

KPC tumor = experiment: Vaccination with drug-treated dying KPC cells, live KPC challenge on contralateral side; type: in vivo, mouse; details: for KPC tumor growth in the contralateral flank (spaghetti curves) / KPC tumor size on the contralateral side: 2 rounds of vaccination one week apart; for KPC tumor size on the contralateral side: tumors collected on day 26
Protocol: as §1, with “Panel A) Flow cytometry experiment showing the induction of the ICD marker, CRT, in cultured KPC pancreatic cancer cells in the presence of PBS, DOX (20 μM), OX (500 μM), and activated DOX (a.k.a.” left out, “IHC.” for “IHC. IHC staining of CD8 and Foxp3 T cells was used to calculate CD8/FoxP3 T cells ratio in each group. *p<0.05; **p<0.01”
Animal experiments were performed using two rounds of vaccination one week apart, followed by injecting live KPC cells SC on the contralateral side (FIG. 6, panel B). Tumors were collected on day 26 for size measurement and IHC analysis.
Tumor collection was performed after euthanizing the animals to conduct IHC. IHC staining of CD8 and Foxp3 T cells was used to calculate CD8/FoxP3 T cell ratio in each group (see, e.g., FIG. 6, panel F).

Solubility and log P = type: physicochemical
[3] = PK characteristics of free IND; details: in vivo
[4] = Determination of MTD doses in normal mice; details: mouse, in vivo, single IV administration
Protocol: FIG. 26. Panel A) Determination of MTD doses for free MTX and liposomal MTX in normal mice. MTD doses for free MTX and liposomal MTX were 3 and 15 mg/kg for single IV administration. Due to the high MTD of liposomal MTX, we tested the efficacy of the MTX liposome at low dose (1 mg/Kg×3 times) and high dose (3 mg/Kg×3 times). Panel B) Pilot tumor size measurement in 4T1 orthotopic tumor-bearing mice (n=6) receiving IV free drug or MTX-only liposome. For free drug treatment, we have included 2 two schedules namely single IV at 3 mg/kg at Day 8 or IV injections at 1 mg/kg at Day 8, 11 and 14. Since MTX liposome has a 5× higher MTD dose, the tumor mice received single IV at 3 mg/kg at Day 8 or IV injections at Day 8, 11 and 14.

4T1 cells [5] = experiment: CRT induction by liposomes in 4T1 cells (flow cytometry)
Excerpt: Panel B) All the particles were fully characterized abiotically and biotically.

[6] = cited from earlier work

Compound: 16:0 LysoPC-indoximod [IND-PL]
effect on mTOR signaling (phosphorylation of P-S6K) (mTOR signaling): enhanced effect

Compound: O=c1[nH]cc(F)c(=O)[nH]1 [5-FU, 5-fluorouracil]
ICD induction (calreticulin expression, release of HMGB1) (4T1 cells [1]): failed to induce the same effect

Compound: COc1cccc2c1C(=O)c1c(O)c3c(c(O)c1C2=O)C[C@@](O)(C(=O)CO)C[C@@H]3O[C@H]1C[C@H](N)[C@H](O)[C@H](C)O1 [DOX, doxorubicin]
ICD induction (calreticulin expression, release of HMGB1) (4T1 cells [1]): can induce
induction of the ICD marker CRT [2]: induced
HMGB1 release [2]: increased
KPC tumor growth in the contralateral flank (spaghetti curves) (KPC tumor): decrease
KPC tumor size on the contralateral side (KPC tumor): significant reduction

water solubility (Solubility and log P): relatively water insoluble
PK characteristics [3]: unfavorable PK characteristics
Compound: Cn1cc(C[C@@H](N)C(=O)O)c2ccccc21 [Free IND, 1-methyl-D-tryptophan]

Compound: O=C1c2c(O)ccc(O)c2C(=O)c2c(NCCNCCO)ccc(NCCNCCO)c21 [MTX, mitoxantrone]
ICD induction (calreticulin expression, release of HMGB1) (4T1 cells [1]): can induce
MTD [4]: 3 mg/kg
CRT induction / ICD response in 4T1 cells (FIG. 31 panel B) (4T1 cells [5]): generation of an ICD response

Compound: O=C1[O][Pt]2([NH][C@@H]3CCCC[C@H]3[NH]2)[O]C1=O [OX, oxaliplatin]
induction of the ICD marker CRT [2]: induced
HMGB1 release [2]: increased
KPC tumor growth in the contralateral flank (spaghetti curves) (KPC tumor): decrease
KPC tumor size on the contralateral side (KPC tumor): significant reduction
CD8+/Foxp3+ ratio (KPC tumor; local and systemic tumor sites): capable of increasing

Compound: N.N.[Cl][Pt][Cl] [cisplatin]
ICD induction (calreticulin expression, release of HMGB1) (4T1 cells [1]): failed to induce the same effect

Compound: NS(=O)(=O)NCCNc1nonc1C(=NO)Nc1ccc(F)c(Br)c1 [epacadostat]
solubility in ethanol [6]: > 20 mg/mL

Compound: CC(=O)O[C@H]1C(=O)[C@@]2(C)[C@H]([C@H](OC(=O)c3ccccc3)[C@]3(O)C[C@H](OC(=O)[C@H](O)[C@@H](NC(=O)c4ccccc4)c4ccccc4)C(C)=C1C3(C)C)[C@]1(OC(C)=O)CO[C@@H]1C[C@@H]2O [paclitaxel]
ICD induction (calreticulin expression, release of HMGB1) (4T1 cells [1]): ICD inducer

Source: patent US11433143B2, “Nano-enabled immunotherapy in cancer” (The Regents of the University of California, priority 2017, dated 2022)
